For 49 molecules, chromatographic logP and log p results are on record in patent US8981111B2 (priority 2008, dated 2015).

One data set in a line: log P (HPLC/MS data of the preparation examples). The following applies: HCOOH (formic acid).
What is called chromatographic logP is a lipophilicity value derived from retention on a column. Low readings indicate lower lipophilicity, high ones higher lipophilicity. Consider `Cn1c(C(=NOCc2nccc(N(C(=O)C3CC3)C(=O)C3CC3)n2)c2ccccc2)cnc1C(=O)C1CC1` [Example 312, N-(cyclopropylcarbonyl)-N-(2-{[({[2-(cyclopropylcarbonyl)-1-methyl-1H-imidazol-5-yl](phenyl)methylene}amino)oxy]methyl}pyrimidin-4-yl)cyclopropanecarboxamide], for which the chromatographic logP worked out at 3.73.

Staying with this data set, now noted: LC-MS, method [b]: pH 2.7 with 0.1% formic acid in water and acetonitrile, linear gradient 10% to 95% acetonitrile.
Turning to `Cn1ccnc1C(=NOCc1cccc(NC(=O)CCC2CCCC2)n1)c1cccc(F)c1` [Example 284], the log p is 3.44^[b]. Consider `Cn1ccnc1C(=NOCc1cccc(NC(=O)CCC2CCCCC2)n1)c1cccc(F)c1` [Example 285], for which the log p was 3.92^[b].

Turning to `Cn1ccnc1C(=NOCc1cccc(NC(=O)CSc2ccccc2)n1)c1cccc(F)c1` [Example 286], the log p was 2.82^[b].

For the molecule `CSCCC(=O)Nc1cccc(CON=C(c2cccc(F)c2)c2nccn2C)n1` [Example 287], the log p was 2.07^[b]. In the case of `CCC(C)CC(=O)Nc1cccc(CON=C(c2cccc(F)c2)c2nccn2C)n1` (stereo not shown) [Example 288], the log p was 2.77^[b]. For `CCCC(C)C(=O)Nc1cccc(CON=C(c2cccc(F)c2)c2nccn2C)n1` (stereo not shown) [Example 289], the log p is 2.77^[b]. Still for that read-out and setting: to `Cn1ccnc1C(=NOCc1cccc(NC(=O)Cc2cccs2)n1)c1cccc(F)c1` [Example 290] belongs 2.44^[b].

For `Cn1ccnc1C(=NOCc1cccc(NC(=O)Cc2ccccc2Cl)n1)c1cccc(F)c1` [Example 291], the log p was 2.8^[b]. On the same count and under the same terms, in the case of `Cc1cc(C(F)(F)F)nn1CC(=O)Nc1cccc(CON=C(c2cccc(F)c2)c2nccn2C)n1` [Example 292] it was 2.8^[b]; in that of `Cn1ccnc1C(=NOCc1cccc(NC(=O)COc2ccccc2)n1)c1cccc(F)c1` [Example 293], 2.63^[b]; in that of `Cn1ncnc1C(=NOCc1cccc(NC(=O)Cc2ccc(F)cc2)n1)c1ccccc1` [Example 294], 3.15^[b]. Regarding `Cn1ncnc1C(=NOCc1cccc(NC(=O)CCc2ccc(Cl)s2)n1)c1ccccc1` [Example 295], the log p is 3.74^[b]. Still for that read-out and setting: to `Cn1ncnc1C(=NOCc1cccc(NC(=O)CCc2cc(Cl)cc(Cl)c2)n1)c1ccccc1` [Example 296] belongs 4.29^[b]; to `COc1ccc(CCC(=O)Nc2cccc(CON=C(c3ccccc3)c3ncnn3C)n2)cc1` [Example 297], 3.25^[b]. In the case of `COc1cccc(CCC(=O)Nc2cccc(CON=C(c3ccccc3)c3ncnn3C)n2)c1` [Example 298], the log p is 3.25^[b].

`COc1ccccc1CCC(=O)Nc1cccc(CON=C(c2ccccc2)c2ncnn2C)n1` [Example 299]: the log p is 3.44^[b]. Same read-out and setting: in the case of `Cn1ncnc1C(=NOCc1cccc(NC(=O)CCc2ccc(Cl)cc2)n1)c1ccccc1` [Example 300] it was 3.72^[b]; in that of `Cn1ncnc1C(=NOCc1cccc(NC(=O)CCc2ccccc2Cl)n1)c1ccccc1` [Example 301], 3.72^[b]; in that of `Cn1ncnc1C(=NOCc1cccc(NC(=O)CCc2ccc(C(F)(F)F)cc2)n1)c1ccccc1` [Example 302], 3.9^[b]. `Cn1ncnc1C(=NOCc1cccc(NC(=O)CCc2ccccc2C(F)(F)F)n1)c1ccccc1` [Example 303]: the log p is 3.87^[b].

In the case of `Cn1ncnc1C(=NOCc1cccc(NC(=O)C2CC2c2ccccc2)n1)c1ccccc1` (stereo not shown) [Example 304], the log p is 3.61^[b]. As for `C=CCCOC(=O)Nc1cccc(CON=C(c2ccccc2)c2ncnn2C)n1` [Example 305], the log p was 3.21^[b]. In the case of `CC(C)CCC(=O)Nc1cccc(CON=C(c2ccccc2)c2ncnn2C)n1` [Example 306], the log p is 3.37^[b]. For `CCC(C)CC(=O)Nc1cccc(CON=C(c2ccccc2)c2ncnn2C)n1` (stereo not shown) [Example 307], the log p is 3.31^[b]. In the case of `Cn1ncnc1C(=NOCc1cccc(NC(=O)CCCCCl)n1)c1ccccc1` [Example 308], the log p is 2.98^[b].

In the case of `C#CCCCC(=O)Nc1cccc(CON=C(c2ccccc2)c2ncnn2C)n1` [Example 309], the log p was 2.7^[b].

With `C=CCCC(=O)Nc1cccc(CON=C(c2ccccc2)c2ncnn2C)n1` [Example 310], the log p is 2.77^[b]. With `Cn1ncnc1C(=NOCc1cccc(NC(=O)Cc2cccs2)n1)c1ccccc1` [Example 311], the log p was 2.98^[b].

`Cn1ncnc1C(=NOCc1cccc(NC(=O)Cc2cccc(Cl)c2)n1)c1ccccc1` [Example 313]: the log p is 3.5^[b].

Turning to `C=CCC(=O)Nc1cccc(CON=C(c2ccccc2)c2ncnn2C)n1` [Example 314], the log p is 2.51^[b]. `CC(C)COC(=O)Nc1cccc(CON=C(c2ccccc2)c2ncnn2C)n1` [Example 316]: the log p was 3.52^[b]. On to `CC(C)CCOC(=O)Nc1cccc(CON=C(c2ccccc2)c2ncnn2C)n1` [Example 317], for which the log p was 3.9^[b]. Turning to `CCC(C)COC(=O)Nc1cccc(CON=C(c2ccccc2)c2nccn2C)n1` (stereo not shown) [Example 324], the log p is 2.52^[b]. Regarding `CC(C)COC(=O)Nc1cccc(CON=C(c2ccccc2)c2nccn2C)n1` [Example 325], the log p is 2.21^[b]. Take `CC(C)CCOC(=O)Nc1cccc(CON=C(c2ccccc2)c2nccn2C)n1` [Example 326]: the log p is 2.51^[b]. Take `Cn1ccnc1C(=NOCc1cccc(NC(=O)OCC(Cl)(Cl)Cl)n1)c1ccccc1` [Example 327]: the log p is 2.45^[b]. Consider `C=CCCOC(=O)Nc1cccc(CON=C(c2ccccc2)c2nccn2C)n1` [Example 328], for which the log p is 2.02^[b]. Still for that read-out and setting: in the case of `CC(C)CCC(=O)Nc1cccc(CON=C(c2ccccc2)c2nccn2C)n1` [Example 329] it was 2.15^[b]; in that of `C#CCOC(=O)Nc1cccc(CON=C(c2ccccc2)c2nccn2C)n1` [Example 330], 1.66^[b]. Still for that read-out and setting: in the case of `Cn1ccnc1C(=NOCc1cccc(NC(=O)CCc2ccc(Cl)s2)n1)c1ccccc1` [Example 331] it was 2.49^[b]; in that of `C#CCCOC(=O)Nc1cccc(CON=C(c2ccccc2)c2nccn2C)n1` [Example 332], 1.78^[b]; in that of `CC(C(=O)Nc1cccc(CON=C(c2ccccc2)c2nccn2C)n1)c1ccccc1` (stereo not shown) [Example 333], 2.21^[b]. Consider `CCCCSC(=O)Nc1cccc(CON=C(c2ccccc2)c2nccn2C)n1` [Example 334], for which the log p was 2.58^[b]. Same read-out and setting: in the case of `Cn1ccnc1C(=NOCc1cccc(NC(=O)CCc2ccc(Cl)s2)n1)c1cccc(F)c1` [Example 335] it was 2.77^[b]; in that of `C#CCCOC(=O)Nc1cccc(CON=C(c2cccc(F)c2)c2nccn2C)n1` [Example 336], 1.98^[b].

In the case of `COC(C(=O)Nc1cccc(CON=C(c2ccccc2)c2nccn2C)n1)c1ccccc1` (stereo not shown) [Example 337], the log p was 2.15^[b].

Still in this data set, the particulars now being: reversed phase HPLC column, pH 2.7.
Molecule `CCCCCC(=O)Nc1cccc(CON=C(c2ccccc2)c2ocnc2C)n1` [Example 320, N-{6-[({[(4-methyl-1,3-oxazol-5-yl)(phenyl)methylene]amino}oxy)methyl]pyridin-2-yl}hexanamide] gave a chromatographic logP of 3.94.

In turn, `CCCCCOC(=O)Nc1nc(CON=C(c2ccccc2)c2ocnc2C)cs1` [Example 321, pentyl{4-[({[(4-methyl-1,3-oxazol-5-yl)(phenyl)methylene]amino}oxy)methyl]-1,3-thiazol-2-yl}carbamate] came in with a chromatographic logP of 4.09.
